Reference: US20070118999A1, “Compositions suitable for the treatment of hair comprising chelants and methods for reducing oxidative hair damage” (The Procter & Gamble Company, priority 2001, published 2007)

Legend:
[1] = 1:1 complexes, fully deprotonated chelants; 25deg, 0.1M ionic strength; cited from earlier work
[2] = 1:1 complexes, fully deprotonated chelants; 25deg, 0.1M ionic strength; cited from earlier work; remark: listed apart in the source
[3] = 5-Cycle Oxidative Hair Treatment Protocol with FT-IR Damage Assessing Protocol; set-up: species or system human; conditions: for Damage benefit vs EDTA 2% / Damage after 5 cycles (cysteic acid units): 5 bleaching cycles, pH 10, 1.9% EDDS, 2.0% HEDP, 2.65% DTPA, 3.8% DTPMP; for Damage after 5 cycles (cysteic acid units): 2% EDTA, sodium salts used; for oxidative hair damage prevention (in words): real conditions of use: pH 10, non-deionized water with Cu^2+ and Ca^2+
Procedure: A bleaching composition comprising the chelant to be tested is prepared by mixing in equal weight amounts a hydrogen peroxide emulsion base and an alkaline (high pH) emulsion base. The hydrogen peroxide emulsion base contains: […] 2 g of the bleaching composition per g of hair to be treated was applied on the hair switches and massaged in thoroughly. The hair switches were then wrapped in a plastic film and put in an oven at 30° C. […] The excess water was then squeezed out of the hair, and the hair dried with a fan. […] Prell® shampoo was using during these tests. This Oxidative Hair Treatment Protocol can be repeated several times. When damage is measured according to the FT-IR Damage Assessing Protocol (described below) the Oxidative Hair Treatment Protocol is preferably repeated 5 times and this process is described as a 5-Cycle Oxidative Hair Treatment Protocol. Damage caused to the hair was assessed by the FT-IR (Fourier Transform Infrared) method, which has been established to be suitable for studying the effects of oxidative treatments on hair (Strassburger, J., J. Soc. Cosmet. Chem., 36, 61-74 (1985); Joy, M. & Lewis, D. M., Int. J. Cosmet. Sci., 13, 249-261 (1991); Signori, V. & Lewis, D. M., Int. J. Cosmet. Sci., 19, 1-13 (1997)). In particular, these authors have shown that the method is suitable for quantifying the amount of cysteic acid that is produced from the oxidation of cystine. In general, the oxidation of cystine is thought to be a suitable marker by which to monitor the overall oxidation of the keratinous part of the fiber. Signori & Lewis (D. M., Int. J. Cosmet. […] They have shown that this technique is more suitable than using the FT-IR method in simple transmission or microscope modes. […] The detailed description of the method used for testing the different damage inhibitors follows thereafter: […] In this method, hair switches of various sizes and colours can be used. The switches were […] per cm) in order to minimize variations in surface area of contact between readings. The Oxidative Hair Treatment Protocol described above was repeated for 5 cycles to mimic the behavior of hair after repeated bleaching cycles. Following this treatment, four readings per switch were taken ( 1/3 and 2/3s down the switch on both sides), and an average calculated. Backgrounds were collected every 4 readings, and an ATR cell pressure of IN/m was employed. The cell was cleaned with ethanol between each reading, and a contamination check performed using the monitor ratio mode of the instrument. As prescribed by Signori & Lewis in 1997, a normalized double derivative analysis routine was used. […] This normalized absorbance was then twice derivatised using a 13 point averaging. […] The following instrumental conditions were employed: […] The corresponding weight percentage is indicated in the first line of the table below. The tri-sodium salt of EDDS, tetra-sodium salt of EDTA, di-sodium salt of HEDP, penta-sodium salt of DTPA and tetra-sodium salt of DTPMP were used. EDTA and DTPA are commonly used in hair care compositions. HEDP was cited in U.S. Pat. […] DPTMP is another phosphonate chelant. […] Damage and lightening effects were assessed after 5 cycles according to the test method described above (“Oxidative hair treatment protocol”). Human hair is often bleached or dyed 5 times or more during its life, which makes this 5 cycle test very meaningful.

[4] = log Conditional Stability Constant at pH 10 with Cu; format: physicochemical
Excerpt: The Conditional Stability Constant is a parameter commonly used in the art to practically assess the stability of metal-chelant complex at a given pH.

[5] = Hydrogen Peroxide Decomposition Ratio Measurement Protocol
Procedure: The Hydrogen Peroxide Decomposition Ratio Measurement Protocol is defined as follows: 6.0% by weight of concentrated ammonium hydroxide (30% active ammonia) is added to deionised water and the pH of the solution is adjusted to 10 using acetic acid. 300 ppm of copper sulphate and 0.026M of the chelant to be tested are added to said composition. […] The initial level of hydrogen peroxide is measured at this moment (t=0); the final level of hydrogen peroxide is measured after 30 minutes. The value of the ratio of the hydrogen peroxide concentration at t=0 and at t=30 mn is the Hydrogen Peroxide Decomposition Ratio (% Loss).
The initial and final level of hydrogen peroxide can be measured according to any standard technique. The following is a well-known and standard technique that was used by the inventors: 0.2-0.3 g (the exact quantity being precisely measured) of the solution to be titrated is added to 40 ml of 10% acetic acid. […] The level of hydrogen peroxide (% Peroxide) is then calculated from the following equation: [formula]
Three replicate runs are made at both t=0 and t=30 mn and then averaged to calculate the Hydrogen Peroxide Decomposition Ratio (% Loss).

Compound	Ratio Cu/Ca (log KCuL/log KCaL) [4]	log Conditional Stability Constant (pH 10) Cu [4]	log K Cu [1]	log K Ca [2]	Damage benefit vs EDTA 2% [3]	Hydrogen Peroxide Decomposition Ratio (% Loss) ([5]; pH 10, 300 ppm copper sulphate, 0.026M chelant, 30 minutes) [%]	Damage after 5 cycles (cysteic acid units) [3] [cysteic acid units]	oxidative hair damage prevention (in words) [3]	capacity at inhibiting the red-ox chemistry of copper (in words) [5]
O=P(O)(O)CN(CCN(CP(=O)(O)O)CP(=O)(O)O)CCN(CP(=O)(O)O)CP(=O)(O)O [DTPMP, diethylenetriamine-N,N,N′,N″,N″-penta(methylene phosphonate)]	–	–	19.5	7.1	+14%	–	–	–	–
O=C(O)CC(NCCNC(CC(=O)O)C(=O)O)C(=O)O (stereo not drawn) [EDDS, ethylenediamine-N,N′-disuccinic acid]	3.76	–	18.35	4.58	+33%	1.5	110	much less damage than hair treated with any other chelant	–
O=C(O)CN(CCN(CC(=O)O)CC(=O)O)CC(=O)O [EDTA, ethylenediaminetetraacetic acid]	–	–	18.78	10.65	–	–	–	very poor damage prevention properties	very good capacity at inhibiting the red-ox chemistry of copper

Second part, led by results:

Ratio Cu/Ca (log KCuL/log KCaL) [4]	log Conditional Stability Constant (pH 10) Cu [4]	Compound	log K Cu [1]	log K Ca [2]	Damage benefit vs EDTA 2% [3]	Hydrogen Peroxide Decomposition Ratio (% Loss) ([5]; pH 10, 300 ppm copper sulphate, 0.026M chelant, 30 minutes) [%]	Damage after 5 cycles (cysteic acid units) [3] [cysteic acid units]	oxidative hair damage prevention (in words) [3]	capacity at inhibiting the red-ox chemistry of copper (in words) [5]
1.75	–	CC(O)(P(=O)(O)O)P(=O)(O)O [HEDP, 1-hydroxyethane-1,1-diphosphonic acid]	11.84	6.0	+1%	–	–	–	–
1.85	18.78	diethylenetriaminepentaacetate [DTPA]	21.4	10.75	+11%	–	147	–	–
